Non-standard residues stand in square brackets, D forms with d. Residues, ends and D or L forms follow the SMILES beside them. *: point of attachment. Phe(4-guanidino) = N=C(N)Nc1ccc(C[C@H](N)C(=O)O)cc1; Phe(4-F) = N[C@@H](Cc1ccc(F)cc1)C(=O)O; Benzoyl(4-Cl) = O=C(c1ccc(Cl)cc1)*; X10 = O=C(c1c[nH]c2ccccc12)*

The target of the assay is T1, Proteinase-activated receptor 1 (Homo sapiens, UniProt P25116).
T1 sequence (P25116 whole entry): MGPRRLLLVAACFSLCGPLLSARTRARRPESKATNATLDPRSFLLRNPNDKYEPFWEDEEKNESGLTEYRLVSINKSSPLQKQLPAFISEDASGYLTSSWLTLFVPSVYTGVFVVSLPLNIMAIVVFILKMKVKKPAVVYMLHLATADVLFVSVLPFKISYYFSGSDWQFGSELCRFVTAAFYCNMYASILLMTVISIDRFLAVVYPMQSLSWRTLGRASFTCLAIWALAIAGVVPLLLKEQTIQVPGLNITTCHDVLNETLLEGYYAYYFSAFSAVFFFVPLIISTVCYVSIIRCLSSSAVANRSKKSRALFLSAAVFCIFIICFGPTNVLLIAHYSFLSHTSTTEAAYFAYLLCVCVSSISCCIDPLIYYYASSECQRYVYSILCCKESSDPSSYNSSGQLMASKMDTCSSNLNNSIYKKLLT
Consider `C=CC(=O)c1ccsc1N(C(C)=O)[C@@H](Cc1ccc(F)cc1)C(=O)N[C@@H](Cc1ccc(NC(=N)N)cc1)C(=O)N[C@@H](CC(C)C)C(=O)N[C@@H](CCCN=C(N)N)C(N)=O`, for which the midpoint of inhibition, the IC50, lay at 23 nM.
The value for `CC(=O)N(C(=O)/C=C/c1ccc(Cl)cc1)[C@@H](Cc1ccc(F)cc1)C(=O)N[C@@H](Cc1ccc(NC(=N)N)cc1)C(=O)N[C@@H](CC(C)C)C(=O)N[C@@H](CCCN=C(N)N)C(N)=O` was 99 nM; that for `CC(=O)N(C(=O)/C=C/c1ccc(F)cc1)[C@@H](Cc1ccc(F)cc1)C(=O)N[C@@H](Cc1ccc(NC(=N)N)cc1)C(=O)N[C@@H](CC(C)C)C(=O)N[C@@H](CCCN=C(N)N)C(=O)N[C@@H](CCCN)C(=O)CC(N)=O` was 25 nM; that for `CC(=O)N(C(=O)c1ccccc1N)[C@@H](Cc1ccc(F)cc1)C(=O)N[C@@H](Cc1ccc(NC(=N)N)cc1)C(=O)N[C@@H](CC(C)C)C(=O)N[C@@H](CCCN=C(N)N)C(N)=O` was 1000 nM.
As for `CC(=O)N(C(=O)/C=C/c1ccc(-c2ccccc2)cc1)[C@@H](Cc1ccc(F)cc1)C(=O)N[C@@H](Cc1ccc(NC(=N)N)cc1)C(=O)N[C@@H](CC(C)C)C(=O)N[C@@H](CCCN=C(N)N)C(N)=O`, the IC50 (as a rule, the concentration that inhibits the measured activity by half) came to 1530 nM.
The figure for `CC(C)C[C@H](NC(=O)[C@H](Cc1ccc(NC(=N)N)cc1)NC(=O)[C@H](Cc1ccc(F)cc1)NC(=O)c1c[nH]c2ccccc12)C(=O)N[C@@H](CCCN=C(N)N)C(N)=O` (X10-[Phe(4-F)][Phe(4-guanidino)]LR-NH2) is 19 nM; for `CC(C)C[C@H](NC(=O)[C@@H](N)CCCN=C(N)N)C(=O)N[C@@H](CCCN)C(=O)N[C@@H](Cc1ccc(F)cc1)C(=O)NC(=O)/C=C/c1ccccc1` it is 170 nM.
The value for `CC(=O)N(C(=O)/C=C/c1ccccc1)[C@@H](Cc1ccc(F)cc1)C(=O)N[C@@H](Cc1ccc2ccccc2c1)C(=O)N[C@@H](CC(C)C)C(=O)N[C@@H](CCCN=C(N)N)C(N)=O` was 246 nM; that for `CC(=O)N(C(=O)/C=C/c1ccc(F)cc1)[C@@H](Cc1ccc(F)cc1)C(=O)N[C@@H](Cc1ccc(NC(=N)N)cc1)C(=O)N[C@@H](CC(C)C)C(=O)N[C@@H](CCCN=C(N)N)C(N)=O` (stereo in doubt; 43) was 20 nM.
The compound `CC(C)C[C@H](NC(=O)[C@H](Cc1ccc(NC(=N)N)cc1)NC(=O)[C@H](Cc1ccc(F)cc1)NC(=O)c1ccc(Cl)cc1)C(=O)N[C@@H](CCCN=C(N)N)C(N)=O` ({Benzoyl(4-Cl)}-[Phe(4-F)][Phe(4-guanidino)]LR-NH2) showed a half-maximal inhibitory concentration (IC50) of 26 nM.
As to `CC(=O)N(C(=O)/C=C/c1ccccc1)[C@@H](Cc1ccc(F)cc1)C(=O)N[C@@H](Cc1ccc(NC(=N)N)cc1)C(=O)N[C@@H](CC(C)C)C(=O)N[C@@H](CCCN=C(N)N)C(=O)N[C@@H](CCCN)C(=O)CCC(N)=O`, half-maximal inhibition (IC50) was put at 21.9 nM.
The value for `CC(=O)N(C(=O)/C=C/c1ccccc1)[C@@H](Cc1cccs1)C(=O)N[C@@H](Cc1ccc(NC(=N)N)cc1)C(=O)N[C@@H](CC(C)C)C(=O)N[C@@H](CCCN=C(N)N)C(N)=O` was 42 nM; that for `COc1ccc(/C=C/C(=O)N(C(C)=O)[C@@H](Cc2ccc(F)cc2)C(=O)N[C@@H](Cc2ccc(NC(=N)N)cc2)C(=O)N[C@@H](CC(C)C)C(=O)N[C@@H](CCCN=C(N)N)C(N)=O)cc1` was 40 nM; that for `CC(=O)N(C(=O)/C=C/c1ccccc1)[C@@H](Cc1ccc(F)cc1)C(=O)N[C@@H](CCN=C(N)N)C(=O)N[C@@H](CC(C)C)C(=O)N[C@@H](CCCN=C(N)N)C(N)=O` was 28 nM.
The value for `CC(=O)N(c1ccccc1)[C@@H](Cc1ccc(F)cc1)C(=O)N[C@@H](Cc1ccc(NC(=N)N)cc1)C(=O)N[C@@H](CC(C)C)C(=O)N[C@@H](CCCN=C(N)N)C(N)=O` was 680 nM; that for `CC(=O)N(C(=O)/C=C/c1ccccc1)[C@@H](Cc1ccc(F)cc1)C(=O)N[C@@H](Cc1ccc([N+](=O)[O-])cc1)C(=O)N[C@@H](CC(C)C)C(=O)N[C@@H](CCCN=C(N)N)C(N)=O` was 7550 nM.
Regarding `CC(=O)N(c1ccsc1)[C@@H](Cc1ccc(F)cc1)C(=O)N[C@@H](Cc1ccc(NC(=N)N)cc1)C(=O)N[C@@H](CC(C)C)C(=O)N[C@@H](CCCN=C(N)N)C(N)=O`, inhibition was half-maximal at 310 nM (IC50).

(Values after ChEMBL document CHEMBL1129588, “Development of potent thrombin receptor antagonist peptides” (J Med Chem, 1996).)
